# Data published in patent publication US20240270762A1, “PENICILLIN-BINDING PROTEIN INHIBITORS” (priority 2021, published 2024).
# What was measured:
# [1] = test system: N. gonorrhoeae ATCC 49226; assay: Liquid broth MIC in Fastidious broth; settings: Neisseria gonorrhoeae, ATCC49226, read-out: Minimum Inhibitory Concentration (MIC), N. gonorrhoeae ATCC 49226
# [2] = test system: E. coli AG100A; assay: Broth microdilution MIC in CAMHB; type: cell-based; settings: Escherichia coli, read-out: MIC E. coli AG100A
# [3] = test system: N. gonorrhoeae WHO K; assay: Liquid broth MIC in Fastidious broth; settings: Neisseria gonorrhoeae, read-out: Minimum Inhibitory Concentration (MIC), N. gonorrhoeae WHO K
# [4] = test system: K. pneumoniae SI-117; assay: microbe, parasite or virus in culture; type: cell-based; settings: Klebsiella pneumoniae, SI117, read-out: MIC K. pneumoniae SI-117
# [5] = test system: E. coli ATCC 25922; assay: microbe, parasite or virus in culture; type: cell-based; settings: Escherichia coli, ATCC25922, read-out: MIC E. coli 25922
# [6] = test system: E. coli D22; assay: microbe, parasite or virus in culture; type: cell-based; settings: Escherichia coli, D22, read-out: MIC E. coli D22
# [7] = test system: K. pneumoniae UMM; assay: microbe, parasite or virus in culture; type: cell-based; settings: Klebsiella pneumoniae, read-out: MIC K. pneumoniae UMM
# [8] = test system: N. gonorrhoeae WHO L; assay: Liquid broth MIC in Fastidious broth; settings: Neisseria gonorrhoeae, read-out: Minimum Inhibitory Concentration (MIC), N. gonorrhoeae WHO L
# [9] = test system: N. gonorrhoeae WHO Z; assay: Liquid broth MIC in Fastidious broth; settings: Neisseria gonorrhoeae, read-out: Minimum Inhibitory Concentration (MIC), N. gonorrhoeae WHO Z
# [10] = biological target: T1, PBP3 from Escherichia coli (K-12) (Escherichia coli, UniProt P0AD68); assay: Bocillin-FL fluorescence polarization competition binding, E. coli PBP3
# T1 construct: made in house
# T1 sequence (P0AD68 1-577): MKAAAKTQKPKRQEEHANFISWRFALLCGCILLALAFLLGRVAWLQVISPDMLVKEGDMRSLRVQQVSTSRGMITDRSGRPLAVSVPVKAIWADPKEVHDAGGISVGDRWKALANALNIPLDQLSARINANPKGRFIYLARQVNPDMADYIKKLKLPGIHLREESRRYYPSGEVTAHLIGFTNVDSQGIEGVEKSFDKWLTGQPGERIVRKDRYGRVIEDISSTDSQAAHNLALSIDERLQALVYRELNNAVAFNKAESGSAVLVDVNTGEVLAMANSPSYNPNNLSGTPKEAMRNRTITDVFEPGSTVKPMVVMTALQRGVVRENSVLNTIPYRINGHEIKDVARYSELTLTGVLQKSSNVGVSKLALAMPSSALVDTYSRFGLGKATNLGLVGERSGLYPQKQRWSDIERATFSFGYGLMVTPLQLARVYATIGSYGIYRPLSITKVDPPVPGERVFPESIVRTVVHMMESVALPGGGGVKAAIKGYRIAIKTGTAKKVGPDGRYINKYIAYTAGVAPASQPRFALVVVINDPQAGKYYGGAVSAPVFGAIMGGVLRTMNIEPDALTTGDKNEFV
# How it was run: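 Purified PBP was preincubated with inhibitor (E. coli PBP3 1.5 μM, 30 min; P. aeruginosa PBP3 0.75 μM, A. baumannii PBP3 0.2 μM and PBP1a 1 μM, 15 min), then Bocillin-FL (0.1 μM; 0.05 μM for PBP1a) added and FP read up to 60 min. EC50 = 50% loss of bound probe.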
# [11] = test system: N. gonorrhoeae WHO M; assay: Liquid broth MIC in Fastidious broth; settings: Neisseria gonorrhoeae, read-out: Minimum Inhibitory Concentration (MIC), N. gonorrhoeae WHO M
# [12] = test system: N. gonorrhoeae MS11; assay: Liquid broth MIC in Fastidious broth; settings: Neisseria gonorrhoeae, MS11, read-out: Minimum Inhibitory Concentration (MIC), N. gonorrhoeae MS11
# [13] = test system: A. baumannii ATCC 19606; assay: microbe, parasite or virus in culture; type: cell-based; settings: Acinetobacter baumannii, ATCC19606, read-out: MIC, A. baumannii ATCC 19606
# [14] = test system: N. gonorrhoeae CDC-0197; assay: Liquid broth MIC in Fastidious broth; settings: Neisseria gonorrhoeae, CDC0197, read-out: Minimum Inhibitory Concentration (MIC), N. gonorrhoeae CDC-0197
# [15] = test system: N. gonorrhoeae WHO Q; assay: Liquid broth MIC in Fastidious broth; settings: Neisseria gonorrhoeae, read-out: Minimum Inhibitory Concentration (MIC), N. gonorrhoeae WHO Q
# [16] = test system: P. aeruginosa ATCC 35151; assay: microbe, parasite or virus in culture; type: cell-based; settings: Pseudomonas aeruginosa, ATCC35151, read-out: MIC P. aeruginosa ATCC 35151
SMILES,MIC [1],MIC [2],MIC [3],MIC [4],MIC [5],MIC [6],MIC [7],MIC [8],MIC [9],EC50 [10],MIC [11],MIC [12],MIC [13],MIC [14],MIC [15],MIC [16]
"CS(=O)(=O)N1CCC[C@H]1C(=O)N[C@H](C(=O)N[C@H]1Cc2cccc(C(=O)O)c2OB1O)c1ccc(P(=O)(O)O)cc1 [Example 43, (R)-2-hydroxy-3-((S)-2-((S)-1-(methylsulfonyl)pyrrolidine-2-carboxamido)-2-(4-phosphonophenyl)acetamido)-3,4-dihydro-2H-benzo[e][1,2]oxaborinine-8-carboxylic acid]",4 to 8 µg/mL,> 128 µg/mL,16 to 32 µg/mL,> 128 µg/mL,> 128 µg/mL,32 to 64 µg/mL,> 128 µg/mL,16 to 32 µg/mL,4 to 8 µg/mL,50 to 250 µM,1 to 2 µg/mL,4 to 8 µg/mL,> 128 µg/mL,1 to 2 µg/mL,4 to 8 µg/mL,8 to 16 µg/mL
"O=C(NC(C(=O)N[C@H]1Cc2cccc(C(=O)O)c2OB1O)c1ccc(P(=O)(O)O)cc1)c1ccc(Cl)cn1 (stereo partly drawn) [Example 184, (3R)-3-(2-(5-chloropicolinamido)-2-(4-phosphonophenyl)acetamido)-2-hydroxy-3,4-dihydro-2H-benzo[e][1,2]oxaborinine-8-carboxylic acid]",< 1 µg/mL,32 to 64 µg/mL,1 to 2 µg/mL,> 128 µg/mL,> 128 µg/mL,8 to 16 µg/mL,> 128 µg/mL,4 to 8 µg/mL,< 1 µg/mL,< 10 µM,< 1 µg/mL,< 1 µg/mL,> 128 µg/mL,< 1 µg/mL,1 to 2 µg/mL,2 to 4 µg/mL
"CCN1CCN(C(=O)NC(C(=O)N[C@H]2Cc3cccc(C(=O)O)c3OB2O)c2ccc(S(=O)(=O)O)cc2)C(=O)C1=O (stereo partly drawn) [Example 189, (3R)-3-(2-(4-ethyl-2,3-dioxopiperazine-1-carboxamido)-2-(4-sulfophenyl)acetamido)-2-hydroxy-3,4-dihydro-2H-benzo[e][1,2]oxaborinine-8-carboxylic acid]",< 1 µg/mL,8 to 16 µg/mL,1 to 2 µg/mL,> 128 µg/mL,> 128 µg/mL,2 to 4 µg/mL,32 to 64 µg/mL,4 to 8 µg/mL,1 to 2 µg/mL,10 to 50 µM,< 1 µg/mL,< 1 µg/mL,> 128 µg/mL,1 to 2 µg/mL,1 to 2 µg/mL,< 1 µg/mL
"O=C(O)c1cccc2c1OB(O)[C@@H](NC(=O)C(NC(=O)C1CCCCC1)c1ccc(P(=O)(O)O)cc1)C2 (stereo partly drawn) [Example 31, (3R)-3-(2-(cyclohexanecarboxamido)-2-(4-phosphonophenyl)acetamido)-2-hydroxy-3,4-dihydro-2H-benzo[e][1,2]oxaborinine-8-carboxylic acid]",16 to 32 µg/mL,> 128 µg/mL,16 to 32 µg/mL,> 128 µg/mL,> 128 µg/mL,32 to 64 µg/mL,> 128 µg/mL,16 to 32 µg/mL,16 to 32 µg/mL,50 to 250 µM,4 to 8 µg/mL,16 to 32 µg/mL,> 128 µg/mL,16 to 32 µg/mL,16 to 32 µg/mL,2 to 4 µg/mL
"NC(=O)c1ccc(C(=O)NC(C(=O)N[C@H]2Cc3cccc(C(=O)O)c3OB2O)c2ccc(P(=O)(O)O)cc2)nc1 (stereo partly drawn) [Example 188, (3R)-3-(2-(5-carbamoylpicolinamido)-2-(4-phosphonophenyl)acetamido)-2-hydroxy-3,4-dihydro-2H-benzo[e][1,2]oxaborinine-8-carboxylic acid]",< 1 µg/mL,> 128 µg/mL,1 to 2 µg/mL,> 128 µg/mL,> 128 µg/mL,8 to 16 µg/mL,> 128 µg/mL,4 to 8 µg/mL,1 to 2 µg/mL,10 to 50 µM,< 1 µg/mL,< 1 µg/mL,> 128 µg/mL,1 to 2 µg/mL,1 to 2 µg/mL,8 to 16 µg/mL
"O=C(O)c1cccc2c1OB(O)[C@@H](NC(=O)[C@H](NC(=O)c1cnc3sccn3c1=O)c1ccc(P(=O)(O)O)cc1)C2 (single isomer, unassigned) [Example 195]",4 to 8 µg/mL,> 128 µg/mL,16 to 32 µg/mL,> 128 µg/mL,> 128 µg/mL,8 to 16 µg/mL,> 128 µg/mL,16 to 32 µg/mL,4 to 8 µg/mL,< 10 µM,1 to 2 µg/mL,4 to 8 µg/mL,> 128 µg/mL,4 to 8 µg/mL,4 to 8 µg/mL,< 1 µg/mL
"CC(=O)N1CCC[C@@H]1C(=O)N[C@H](C(=O)N[C@H]1Cc2cccc(C(=O)O)c2OB1O)c1ccc(P(=O)(O)O)cc1 [Example 33, (3R)-3-(2-((R)-1-acetylpyrrolidine-2-carboxamido)-2-(4-phosphonophenyl)acetamido)-2-hydroxy-3,4-dihydro-2H-benzo[e][1,2]oxaborinine-8-carboxylic acid]",16 to 32 µg/mL,> 128 µg/mL,16 to 32 µg/mL,> 128 µg/mL,> 128 µg/mL,32 to 64 µg/mL,> 128 µg/mL,16 to 32 µg/mL,16 to 32 µg/mL,50 to 250 µM,4 to 8 µg/mL,16 to 32 µg/mL,> 128 µg/mL,16 to 32 µg/mL,16 to 32 µg/mL,8 to 16 µg/mL
"O=C(O)c1cccc2c1OB(O)[C@@H](NC(=O)[C@H](NC(=O)c1cccn(C(F)F)c1=O)c1ccc(P(=O)(O)O)cc1)C2 (single isomer, unassigned) [Example 191]",1 to 2 µg/mL,32 to 64 µg/mL,4 to 8 µg/mL,> 128 µg/mL,> 128 µg/mL,8 to 16 µg/mL,> 128 µg/mL,4 to 8 µg/mL,1 to 2 µg/mL,< 10 µM,< 1 µg/mL,1 to 2 µg/mL,> 128 µg/mL,1 to 2 µg/mL,1 to 2 µg/mL,< 1 µg/mL
"Cn1cccc(C(=O)N[C@H](C(=O)N[C@H]2Cc3cccc(C(=O)O)c3OB2O)c2ccc(P(=O)(O)O)cc2)c1=O (single isomer, unassigned) [Example 181]",16 to 32 µg/mL,> 128 µg/mL,16 to 32 µg/mL,> 128 µg/mL,> 128 µg/mL,> 128 µg/mL,> 128 µg/mL,16 to 32 µg/mL,16 to 32 µg/mL,50 to 250 µM,16 to 32 µg/mL,4 to 8 µg/mL,> 128 µg/mL,16 to 32 µg/mL,16 to 32 µg/mL,8 to 16 µg/mL
"N#Cc1ccnc(C(=O)NC(C(=O)N[C@H]2Cc3cccc(C(=O)O)c3OB2O)c2ccc(P(=O)(O)O)cc2)c1 (stereo partly drawn) [Example 179, (3R)-3-(2-(4-cyanopicolinamido)-2-(4-phosphonophenyl)acetamido)-2-hydroxy-3,4-dihydro-2H-benzo[e][1,2]oxaborinine-8-carboxylic acid]",16 to 32 µg/mL,> 128 µg/mL,16 to 32 µg/mL,> 128 µg/mL,> 128 µg/mL,32 to 64 µg/mL,> 128 µg/mL,16 to 32 µg/mL,16 to 32 µg/mL,50 to 250 µM,4 to 8 µg/mL,16 to 32 µg/mL,> 128 µg/mL,16 to 32 µg/mL,16 to 32 µg/mL,2 to 4 µg/mL
"O=C(O)c1cccc2c1OB(O)[C@@H](NC(=O)[C@H](NC(=O)N1CCCCC1=O)c1ccc(P(=O)(O)O)cc1)C2 [Example 37, (R)-2-hydroxy-3-((R)-2-(2-oxopiperidine-1-carboxamido)-2-(4-phosphonophenyl)acetamido)-3,4-dihydro-2H-benzo[e][1,2]oxaborinine-8-carboxylic acid]",< 1 µg/mL,32 to 64 µg/mL,4 to 8 µg/mL,> 128 µg/mL,> 128 µg/mL,8 to 16 µg/mL,> 128 µg/mL,16 to 32 µg/mL,1 to 2 µg/mL,< 10 µM,< 1 µg/mL,1 to 2 µg/mL,> 128 µg/mL,1 to 2 µg/mL,1 to 2 µg/mL,< 1 µg/mL
